Data from patent publication US20240018129A1, “COMPOUNDS AS PU. 1 INHIBITORS” (PEKING UNIVERSITY, priority 2020, published 2024).

Experiments:
[1] = system: CCl4-induced liver fibrosis; test: CCl4 (higher dose)-induced liver fibrosis model; assay type: in vivo, mouse; conditions: 5mpk or 10mpk i.p. once daily for 6 weeks
Excerpt: Methods: To evaluate the potential therapeutic effects of compound I-1 on liver disorders, including liver fat steatosis and accumulation, nonalcoholic fatty liver disease (NAFLD), nonalcoholic steatosis hepatitis (NASH), and liver fibrosis, three mice models (C57BL/6, male, 8 weeks old) were used. (I) NASH diet (Code.TD.160785, ENVIGO, USA)-induced NASH model: All mice were fed with NASH diet for 10 weeks. Mice were then randomly distributed into three groups, and each group was assigned to be injected daily with vehicle, compound I-1 (2.5mpk or 5mpk, i.p.), or DB1976 (2.5mpk, i.p, as a positive control) for another 6 weeks on continuous NASH diet. A group with normal regular diet was treated with vehicle as health control. (II) High-fat diet (HFD) combinate with CCl4 (lower dose)—induced NASH model. Mice were fed with normal regular diet or HFD (kcal fat 60%—D12492, research diets) for 10 weeks, then the HFD mice were divided into two groups randomly based on the rule of minimum weight differences. Each group was assigned to be injected with CCl4 (25% v/v in olive oil, 0.5 mL/kg body weight) or pure olive oil (i.p.) twice a week for 4 weeks. Compound 1-1 or vehicle (saline) were injected (i.p.) once daily for 4 weeks at the same time with CCl4 under continuous HFD. (III) CCl4 (higher dose)—induced liver fibrosis model. Liver fibrosis was induced by CCl4 injection (20% v/v in olive oil, 10 mL/kg body weight) twice a week for 6 weeks, compound I-1 or vehicle are also injected (i.p.) once daily for 6 weeks at the same time with CCl4 application. Ail the mice in the above-mentioned three models were observed daily. After the last day of treatment of all the models, mice were fasted overnight and euthanized. Serum was collected after centrifuging of the whole blood at 4 degrees, and blood biochemistry parameters were tested through automatic biochemical instrument (BS-240VET, Mindray). Part of liver tissues were fixed with paraformaldehyde, embedded with paraffin, and then sliced for H&E or Sirius red staining to check pathological features, and NAFLD scores. […]

[2] = system: NASH diet-induced NASH; test: NASH diet-induced NASH model; assay type: in vivo, mouse
Excerpt: Methods: To evaluate the potential therapeutic effects of compound I-1 on liver disorders, including liver fat steatosis and accumulation, nonalcoholic fatty liver disease (NAFLD), nonalcoholic steatosis hepatitis (NASH), and liver fibrosis, three mice models (C57BL/6, male, 8 weeks old) were used. (I) NASH diet (Code.TD.160785, ENVIGO, USA)-induced NASH model: All mice were fed with NASH diet for 10 weeks. Mice were then randomly distributed into three groups, and each group was assigned to be injected daily with vehicle, compound I-1 (2.5mpk or 5mpk, i.p.), or DB1976 (2.5mpk, i.p, as a positive control) for another 6 weeks on continuous NASH diet. A group with normal regular diet was treated with vehicle as health control. (II) High-fat diet (HFD) combinate with CCl4 (lower dose)—induced NASH model. Mice were fed with normal regular diet or HFD (kcal fat 60%—D12492, research diets) for 10 weeks, then the HFD mice were divided into two groups randomly based on the rule of minimum weight differences. Each group was assigned to be injected with CCl4 (25% v/v in olive oil, 0.5 mL/kg body weight) or pure olive oil (i.p.) twice a week for 4 weeks. Compound 1-1 or vehicle (saline) were injected (i.p.) once daily for 4 weeks at the same time with CCl4 under continuous HFD. (III) CCl4 (higher dose)—induced liver fibrosis model. Liver fibrosis was induced by CCl4 injection (20% v/v in olive oil, 10 mL/kg body weight) twice a week for 6 weeks, compound I-1 or vehicle are also injected (i.p.) once daily for 6 weeks at the same time with CCl4 application. Ail the mice in the above-mentioned three models were observed daily. After the last day of treatment of all the models, mice were fasted overnight and euthanized. Serum was collected after centrifuging of the whole blood at 4 degrees, and blood biochemistry parameters were tested through automatic biochemical instrument (BS-240VET, Mindray). Part of liver tissues were fixed with paraformaldehyde, embedded with paraffin, and then sliced for H&E or Sirius red staining to check pathological features, and NAFLD scores. Kleiner, D. E. et al. Hepatology 41, 1313-1321, doi:10.1002/hep.20701 (2005). Part of liver tissues were used fresh, embedded in optimum cutting temperature compound, and sectioned. The sections were stained with 0.5% oil red 0 according to standard procedures after fixed in 4% paraformaldehyde in PBS. Another part of liver tissues were collected and stored in −80° C. after liquid nitrogen quick-freezing, RNA. isolation (Code.R6934, OMEGA., USA), first cDNA reverse (Code.AT341, TransGen, China), SYBR mix (Code.AQ601, TransGen, China) for Q-PCR (LightCycler®96, Roche) to verify genes mRNA level, such as, fibrosis-related genes, Col1a1 and Col1a2; inflammation-related genes, IL-6 and IL-1β.

[3] = target: T1, PU.1 (Mus musculus, UniProt P17433); test: q-PCR of TIM-3 expression in Blast-PU.1 cells (PU.1 inhibition potency); assay type: cell-based
T1 construct: EGFP (from 'PU.1-EGFP-vector'); expressed in transfected cells
Excerpt: An acute T cell lymphoblastic leukemia (T-ALL) disease model was used to evaluate the effect of the newly synthesized compounds on PU.1 inhibition. Pten, a famous tumor suppressor gene, was […] deleted in mouse hematopoietic stem cells and their differentiated progeny, and this would eventually lead to a progressive T-ALL in about two months from born. It is believed that immune checkpoint T cell immunoglobulin mucin-3 (TIM-3), a surface marker for the isolation of pure leukemia-initiating cells (LICs), is transcriptionally regulated by transcription factor PU.1 in the Pten-null T-ALL model. Therefore, the expression level of TIM-3 was detected and quantified to characterize the inhibition potency of the compounds after 24 h treatment of graded concentrations of compounds. Blast cells were transfected with either PU.1-EGFP-vector or EGFP-vector to yield stable cell lines blast-PU.1 and blast-EGFP, respectively. These cell lines were used for compound testing in vitro. Compounds DB1976 and DB2115 were tested as well for comparison. Blast-PU.1 and blast-EGFP are the ideal cell lines for compounds testing in vitro, since they are T-ALL blast cells with […] TIM-3 and PU.1 expression level.

downregulated the expression level of TIM-3 ([3]; 10 nM, 24 h treatment, Blast-PU.1 cell line, q-PCR): 40%
activity in terms of PU.1-mediated TIM-3 inhibition, compared among tested compounds ([3]; Blast-PU.1 cells): best activity
SMILES: N=C(N)c1ccc2nc(-c3ccc(NC(=O)[C@@H]4CCCN4C(=O)[C@@H]4CCCN4C(=O)c4ccc(-c5nc6ccc(C(=N)N)cc6[nH]5)cc4)cc3)[nH]c2c1 [Compound I-1, (S)-1-((4-(6-carbamimidoyl-1H-benzo[d]imidazol-2-yl)benzoyl)-L-prolyl)-N-(4-(6-carbamimidoyl-1H-benzo[d]imidazol-2-yl)phenyl)pyrrolidine-2-carboxamide]
CCl4-induced liver fibrosis [1]: alleviated
collagen deposition and Sirius red-positive area [1]: significantly decreased
inordinate mRNA level and blood biochemistry induced by CCl4 application [1]: ameliorated
efficacy when comparing with DB1976 (2.5mpk) ([2]; 2.5mpk i.p. daily for 6 weeks): lower efficacy
fat accumulation in liver ([2]; 2.5mpk i.p. daily for 6 weeks): decreased
metabolic disturbance by NASH diet (body weight, liver fat, ALT, LDL-C, TC, IL-6, IL-1β, Col1a1, Col1a2) ([2]; 2.5mpk i.p. daily for 6 weeks): tendency to alleviate
mRNA levels of IL-6, IL-1β and Col1a1, Col1a2 ([2]; 2.5mpk i.p. daily for 6 weeks, liver): lower
metabolic disturbance by NASH diet (body weight, liver fat, ALT, LDL-C, TC, IL-6, IL-1β, Col1a1, Col1a2) ([2]; 5mpk i.p. daily for 6 weeks): potently alleviated
